In patent US20100178250A1, “Method of Local Delivery of Bioactive and Diagnostic Agents Using Magnetizable Bone Cement” (Philadelphia Health & Education Corporation, priority 2006, published 2010):

What was measured:
[1] = tested on: bacterial strains cultured directly from clinically retrieved gentamicin-loaded bone cement; details: cited from earlier work
[2] = tested on: Staphlococcus aureus; test: Staphlococcus aureus bacterial cultures (plate, clear areas); type: cell-based; details: 150 μL beads or 10 mg tobramycin disc on plate
Procedure: Staphlococcus aureus bacterial cultures were performed in the microbiology department of Hahnemann University Hospital. On each plate 150 μL of control beads, 150 μL, of antibiotic beads and a 10 mg tobramycin disc were placed in order to see any bactericidal activity.

gentamicin
gentamicin resistant strains [1]: 19 of 28

NC[C@H]1O[C@H](O[C@H]2[C@H](O)[C@@H](O[C@H]3O[C@H](CO)[C@@H](O)[C@H](N)[C@H]3O)[C@H](N)C[C@@H]2N)[C@H](N)C[C@@H]1O [tobramycin disc, tobramycin]
bactericidal activity (clear areas indicating lack of bacterial growth) [2]: clear areas present
